Assay results reported in patent US12208088B2 (Genentech, Inc., priority 2018, dated 2025).

Biological target: HPK1 (Homo sapiens (Human), UniProt Q92918)
Test: HPK1 Lantha binding assay ("Lanth")
Settings: binding assays; Morrison Ki fit
How it was run: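 Ki values are from Morrison-equation fitting of 665/615 nm TR-FRET signals, taking enzyme level, tracer level and tracer Kd into account. The assay mix held HPK1 (2 nM), Eu-anti-GST antibody (2 nM) and Tracer222 (15 nM). Incubations were two 1 h steps at 23 °C, on 5-fold serial compound dilutions.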

Chain of HPK1 (Q92918 1-346 limits assumed): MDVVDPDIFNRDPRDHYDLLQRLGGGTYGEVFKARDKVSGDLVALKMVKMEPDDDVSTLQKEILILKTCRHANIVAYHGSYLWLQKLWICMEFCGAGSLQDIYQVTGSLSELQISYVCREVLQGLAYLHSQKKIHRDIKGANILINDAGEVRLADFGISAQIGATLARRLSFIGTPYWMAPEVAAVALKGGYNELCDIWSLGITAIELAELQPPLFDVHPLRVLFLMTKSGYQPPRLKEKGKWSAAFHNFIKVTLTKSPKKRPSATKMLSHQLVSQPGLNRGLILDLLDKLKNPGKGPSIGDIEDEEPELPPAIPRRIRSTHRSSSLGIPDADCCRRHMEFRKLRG

SMILES	Ki [nM]
Cc1c(CC#N)ccnc1-c1cccc(-c2cnc3c(c2Cl)[C@@]2(CC[C@@](C)(C(N)=O)C2)CN3)c1F (single isomer, unassigned) [Compound 267b]	0.39
CN(C)CCN(C)C(=O)c1c(N)ccc(-c2cnc3c(c2Cl)[C@]2(CC[C@](C)(C#N)C2)CN3)c1F (single isomer, unassigned) [Compound 271a]	24.9
Cc1c(CC#N)ccnc1-c1cc(N)cc(-c2cnc3c(c2Cl)[C@]2(CC[C@](C)(C#N)C2)CN3)c1 (single isomer, unassigned) [Compound 274a]	13.3
Cc1c(CC#N)ccnc1-c1cc(N)cc(-c2cnc3c(c2Cl)[C@]2(CC[C@](C)(C#N)C2)CN3)c1 (single isomer, unassigned) [Compound 274b]	0.9
O=C1CCCCN1c1cccc2c(-c3cnc4c(c3Cl)[C@]3(CC[C@H](O)C3)CN4)c[nH]c12 (single isomer, unassigned) [Compound 300a]	27
O=C1CCCCN1c1cccc2c(-c3cnc4c(c3Cl)[C@@]3(CC[C@@H](O)C3)CN4)c[nH]c12 (single isomer, unassigned) [Compound 300b]	270
CO[C@@H]1C[C@@]2(CNc3ncc(-c4ccc(N)c(C(=O)N(C)C)c4F)c(Cl)c32)C[C@H]1O (stereo in doubt) [Compound 140a, 6-Amino-3-((1R,3S,4S)-4′-chloro-3-hydroxy-4-methoxy-1′,2′-dihydrospiro[cyclopentane-1,3′-pyrrolo[2,3-b]pyridin]-5′-yl)-2-fluoro-N,N-dimethylbenzamide]	339
CO[C@H]1C[C@]2(CNc3ncc(-c4ccc(N)c(C(=O)N(C)C)c4F)c(Cl)c32)C[C@@H]1O (stereo in doubt) [Compound 140b, 6-Amino-3-((1S,3R,4R)-4′-chloro-3-hydroxy-4-methoxy-1′,2′-dihydrospiro[cyclopentane-1,3′-pyrrolo[2,3-b]pyridin]-5′-yl)-2-fluoro-N,N-dimethylbenzamide]	62.5
CN(C)C(=O)c1c(N)ccc(-c2cnc3c(c2Cl)[C@]2(CN3)CC(O)C(n3ccnn3)C2)c1F (stereo in doubt) [Compound 146a, 6-Amino-3-((1R,3S,4S)-4′-chloro-3-hydroxy-4-(1H-1,2,3-triazol-1-yl)-1′,2′-dihydrospiro[cyclopentane-1,3′-pyrrolo[2,3-b]pyridin]-5′-yl)-2-fluoro-N,N-dimethylbenzamide]	494
CN(C)C(=O)c1cc(-c2cnc3c(c2)C2(CCCC2)CN3)ccc1N [Compound 1, 2-Amino-5-(1′,2′-dihydrospiro[cyclopentane-1,3′-pyrrolo[2,3-b]pyridin]-5′-yl)-N,N-dimethylbenzamide]	28.8
CN(C)C(=O)c1cc(-c2cnc3c(c2)C2(CC2)CN3)ccc1N [Compound 2, 2-Amino-5-(1′,2′-dihydrospiro[cyclopropane-1,3′-pyrrolo[2,3-b]pyridin]-5′-yl)-N,N-dimethylbenzamide]	35.6
O=C1COCCN1c1cccc(-c2cnc3c(c2)C2(CC2)CN3)c1 [Compound 3, 4-(3-(1′,2′-Dihydrospiro[cyclopropane-1,3′-pyrrolo[2,3-b]pyridin]-5′-yl)phenyl)morpholin-3-one]	40.3
CN(C)C(=O)c1cc(-c2cnc3c(c2)C2(CCC2)CN3)ccc1N [Compound 4, 2-Amino-5-(1′,2′-dihydrospiro[cyclobutane-1,3′-pyrrolo[2,3-b]pyridin]-5′-yl)-N,N-dimethylbenzamide]	71.7
O=C1COCCN1c1cccc(-c2cnc3c(c2)C2(CCC2)CN3)c1 [Compound 5, 4-(3-(1′,2′-Dihydrospiro[cyclobutane-1,3′-pyrrolo[2,3-b]pyridin]-5′-yl)phenyl)morpholin-3-one]	98.7
CN(C)C(=O)c1c(N)ccc(-c2cnc3c(c2)C2(CC2)CN3)c1F [Compound 6, 6-Amino-3-(1′,2′-dihydrospiro[cyclopropane-1,3′-pyrrolo[2,3-b]pyridin]-5′-yl)-2-fluoro-N,N-dimethylbenzamide]	22.7
CN(CCO)C(=O)c1c(N)ccc(-c2cnc3c(c2)C2(CC2)CN3)c1F [Compound 7, 6-amino-3-(1′,2′-dihydrospiro[cyclopropane-1,3′-pyrrolo[2,3-b]pyridin]-5′-yl)-2-fluoro-N-(2-hydroxyethyl)-N-methylbenzamide]	21.6
CN(C)C(=O)c1c(N)ccc(-c2cnc3c(c2Cl)C2(CC2)CN3)c1F [Compound 8, 6-Amino-3-(4′-chloro-1′,2′-dihydrospiro[cyclopropane-1,3′-pyrrolo[2,3-b]pyridin]-5′-yl)-2-fluoro-N,N-dimethylbenzamide]	7.71
O=C1COCCN1c1cccc(-c2cnc3c(c2)C2(CC2)CN3)c1F [Compound 9, 4-(3-(1′,2′-Dihydrospiro[cyclopropane-1,3′-pyrrolo[2,3-b]pyridin]-5′-yl)-2-fluorophenyl)morpholin-3-one]	38.9

SMILES	Ki [nM]
Nc1cc(-c2cnc3c(c2)C2(CC2)CN3)cc(-c2ncccc2CO)c1 [Compound 10, (2-(3-Amino-5-(1′,2′-dihydrospiro[cyclopropane-1,3′-pyrrolo[2,3-b]pyridin]-5′-yl)phenyl)pyridin-3-yl)methanol]	12.7
NS(=O)(=O)Cc1ccc(-c2cnc3c(c2)C2(CC2)CN3)cc1 [Compound 11, (4-(1′,2′-Dihydrospiro[cyclopropane-1,3′-pyrrolo[2,3-b]pyridin]-5′-yl)phenyl)methanesulfonamide]	91.2
CN(CCO)C(=O)c1cccc(-c2cnc3c(c2)C2(CC2)CN3)c1F [Compound 12, 3-(1′,2′-Dihydrospiro[cyclopropane-1,3′-pyrrolo[2,3-b]pyridin]-5′-yl)-2-fluoro-N-(2-hydroxyethyl)-N-methylbenzamide]	37.6
CC1(C)C(=O)Nc2ccc(-c3cnc4c(c3)C3(CC3)CN4)cc21 [Compound 13, 5-(1′,2′-dihydrospiro[cyclopropane-1,3′-pyrrolo[2,3-b]pyridin]-5′-yl)-3,3-dimethylindolin-2-one]	21.6
CN(C)C(=O)c1c(N)ccc(-c2cnc3c(c2)C2(CC2)CN3)c1Cl [Compound 14, 6-amino-2-chloro-3-(1′,2′-dihydrospiro[cyclopropane-1,3′-pyrrolo[2,3-b]pyridin]-5′-yl)-N,N-dimethylbenzamide]	863
CC1Nc2ncc(-c3ccc(N)c(C(=O)N(C)C)c3F)cc2C12CC2 (stereo not drawn) [Compound 15, 6-Amino-2-fluoro-N,N-dimethyl-3-(2′-methyl-1′,2′-dihydrospiro[cyclopropane-1,3′-pyrrolo[2,3-b]pyridin]-5′-yl)benzamide]	122
CN(C)C(=O)c1cc(CO)cc(-c2cnc3c(c2)C2(CC2)CN3)c1 [Compound 16, 3-(1′,2′-dihydrospiro[cyclopropane-1,3′-pyrrolo[2,3-b]pyridin]-5′-yl)-5-(hydroxymethyl)-N,N-dimethylbenzamide]	521
Nc1ccc(-c2cnc3c(c2)C2(CC2)CN3)c(F)c1C(=O)N1CCCC1CO (stereo not drawn) [Compound 17, (6-amino-3-(1′,2′-dihydrospiro[cyclopropane-1,3′-pyrrolo[2,3-b]pyridin]-5′-yl)-2-fluorophenyl)(2-(hydroxymethyl)pyrrolidin-1-yl)methanone]	32.8
CN(C)C(=O)c1cc(-c2cnc3c(c2)C2(CC2)CN3)ccc1CO [Compound 18, 5-(1′,2′-dihydrospiro[cyclopropane-1,3′-pyrrolo[2,3-b]pyridin]-5′-yl)-2-(hydroxymethyl)-N,N-dimethylbenzamide]	259
CN(C(=O)c1c(N)ccc(-c2cnc3c(c2)C2(CC2)CN3)c1F)C(C)(C)CO [Compound 19, 6-amino-3-(1′,2′-dihydrospiro[cyclopropane-1,3′-pyrrolo[2,3-b]pyridin]-5′-yl)-2-fluoro-N-(1-hydroxy-2-methylpropan-2-yl)-N-methylbenzamide]	20.8
CC1(O)C(=O)Nc2ccc(-c3cnc4c(c3)C3(CC3)CN4)cc21 (stereo not drawn) [Compound 20, 5-(1′,2′-dihydrospiro[cyclopropane-1,3′-pyrrolo[2,3-b]pyridin]-5′-yl)-3-hydroxy-3-methylindolin-2-one]	212
CN(C)S(=O)(=O)c1cccc(-c2cnc3c(c2)C2(CC2)CN3)c1F [Compound 21, 3-(1′,2′-dihydrospiro[cyclopropane-1,3′-pyrrolo[2,3-b]pyridin]-5′-yl)-2-fluoro-N,N-dimethylbenzenesulfonamide]	297
CNS(=O)(=O)c1cccc(-c2cnc3c(c2)C2(CC2)CN3)c1F [Compound 22, 3-(1′,2′-dihydrospiro[cyclopropane-1,3′-pyrrolo[2,3-b]pyridin]-5′-yl)-2-fluoro-N-methylbenzenesulfonamide]	869
O=C1Nc2ccc(-c3cnc4c(c3)C3(CC3)CN4)cc2C1(O)C1CC1 (stereo not drawn) [Compound 23, 3-cyclopropyl-5-(1′,2′-dihydrospiro[cyclopropane-1,3′-pyrrolo[2,3-b]pyridin]-5′-yl)-3-hydroxyindolin-2-one]	184
CN(C)C(=O)c1c(N)ccc(-c2cnc3c(c2)C2(CN3)CC2(C)C)c1F (stereo not drawn) [Compound 24, 6-Amino-3-(2,2-dimethyl-1′,2′-dihydrospiro[cyclopropane-1,3′-pyrrolo[2,3-b]pyridin]-5′-yl)-2-fluoro-N,N-dimethylbenzamide]	88.7
CN(C)C(=O)c1c(N)ccc(-c2cnc3c(c2)C2(CN3)C3COCC32)c1F (stereo not drawn) [Compound 26, 6-amino-3-(1′,2′-dihydro-3-oxaspiro[bicyclo[3.1.0]hexane-6,3′-pyrrolo[2,3-b]pyridin]-5′-yl)-2-fluoro-N,N-dimethylbenzamide]	446
CN(C)C(=O)c1c(N)ccc(-c2cnc3c(c2Cl)C2(CCCC2)CN3)c1F [Compound 27, 6-Amino-3-(4′-chloro-1′,2′-dihydrospiro[cyclopentane-1,3′-pyrrolo[2,3-b]pyridin]-5′-yl)-2-fluoro-N,N-dimethylbenzamide]	6.71
CN(C)C(=O)c1c(N)ccc(-c2cnc3c(c2Cl)C2(CC=CC2)CN3)c1F [Compound 28, 6-Amino-3-(4′-chloro-1′,2′-dihydrospiro[cyclopentane-1,3′-pyrrolo[2,3-b]pyridin]-3-en-5′-yl)-2-fluoro-N,N-dimethylbenzamide]	6.95
